Experimental data taken from patent US20170022171A1, “2,5-DISUBSTITUTED CYCLOPENTANECARBOXYLIC ACIDS AND THEIR USE” (Bayer Pharma Aktiengesellschaft, priority 2014, published 2017).

Assays:
Format in all cases: biochemical
[1] = target: T1, mouse MMP-9 (Mus musculus, UniProt P41245); assay: In vitro mouse MMP-9 inhibition test
T1 construct: purchased R&D Systems 909-MP
From the text: (§1) The MMP-mediated amidolytic cleavage of a suitable peptide substrate leads to an increase in fluorescent light here too. The signal intensity of the fluorescent light is directly proportional to the enzyme activity. The active concentration of a test compound at which half the enzyme is inhibited (50% signal intensity of the fluorescent light) is reported as the IC50 value.
Recombinant mouse MMP-9 (from R&D Systems, 909-MP) is chemically activated in accordance with the manufacturer's instructions using APMA. 1 μl of the test compound to be analysed (as a solution in DMSO, suitable concentrations, for example, 1 nM to 30 μM) is pipetted into 24 μl of activated enzyme (final concentration, for example, 0.1 nM) in reaction buffer (50 mM Tris/HCl pH 7.5, 10 mM CaCl2, 150 mM NaCl, 0.05% Brij®-35) in a white 384-hole microtiter plate (MTP). The enzymatic reaction is started by adding the intramolecularly quenched Mca-Pro-Leu-Gly-Leu-Dpa(Dnp)-Ala-Arg-NH2 substrate (final concentration, for example, 5 μM; R&D Systems, ES-001), so as to result in a total test volume of 50 The course of the MMP-9 reaction is measured by measuring the fluorescence intensity (excitation 320 nm, emission 410 nm) over a suitable period of time (for example over 120 min at a temperature of 32° C.).

[2] = target: T2, mouse MMP-12 (Mus musculus, UniProt P34960); assay: In vitro mouse MMP-12 inhibition test (standard or high-sensitivity)
T2 construct: purchased R&D Systems 3467-MP
T2 sequence (P34960 110-473): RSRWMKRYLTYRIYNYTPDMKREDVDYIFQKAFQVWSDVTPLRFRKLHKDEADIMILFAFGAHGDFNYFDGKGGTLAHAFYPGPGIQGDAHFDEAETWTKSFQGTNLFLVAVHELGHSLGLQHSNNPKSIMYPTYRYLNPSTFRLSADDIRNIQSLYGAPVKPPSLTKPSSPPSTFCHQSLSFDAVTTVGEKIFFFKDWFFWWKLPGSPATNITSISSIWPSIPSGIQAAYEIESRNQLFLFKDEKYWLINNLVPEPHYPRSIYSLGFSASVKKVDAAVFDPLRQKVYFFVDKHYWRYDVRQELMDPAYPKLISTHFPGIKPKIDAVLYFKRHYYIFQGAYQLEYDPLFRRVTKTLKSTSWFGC
From the text: as §1
Recombinant mouse MMP-12 (from R&D Systems, 3467-MP) is autocatalytically activated in accordance with the manufacturer's instructions. 1 μl of the test compound to be analysed (as a solution in DMSO, suitable concentrations, for example, 1 nM to 30 μM) is pipetted into 24 μl of activated enzyme (final concentration, for example, 1 nM) in reaction buffer (50 mM Tris/HCl pH 7.5, 10 mM CaCl2, 150 mM NaCl, 0.05% Brij®-35) in a white 384-hole microtiter plate (MTP). The enzymatic reaction is started by adding the intramolecularly quenched Mca-Lys-Pro-Leu-Gly-Leu-Dpa(Dnp)-Ala-Arg-NH2 substrate (final concentration, for example, 5 μM; R&D Systems, ES-010), so as to result in a total test volume of 50 The course of the MMP-12 reaction is measured by measuring the fluorescence intensity (excitation 320 nm, emission 410 nm) over a suitable period of time (for example over 120 min at a temperature of 32° C.).
In this case, an enzyme concentration ten times lower is used (final concentration, for example, 0.1 nM) in order to achieve an elevated test sensitivity. The incubation period chosen for the test is correspondingly longer (for example 16 hours).

[3] = target: T3, mouse MMP-8 (Mus musculus, UniProt O70138); assay: In vitro mouse MMP-8 inhibition test
T3 construct: purchased R&D Systems 2904-MP
T3 sequence (O70138 101-465): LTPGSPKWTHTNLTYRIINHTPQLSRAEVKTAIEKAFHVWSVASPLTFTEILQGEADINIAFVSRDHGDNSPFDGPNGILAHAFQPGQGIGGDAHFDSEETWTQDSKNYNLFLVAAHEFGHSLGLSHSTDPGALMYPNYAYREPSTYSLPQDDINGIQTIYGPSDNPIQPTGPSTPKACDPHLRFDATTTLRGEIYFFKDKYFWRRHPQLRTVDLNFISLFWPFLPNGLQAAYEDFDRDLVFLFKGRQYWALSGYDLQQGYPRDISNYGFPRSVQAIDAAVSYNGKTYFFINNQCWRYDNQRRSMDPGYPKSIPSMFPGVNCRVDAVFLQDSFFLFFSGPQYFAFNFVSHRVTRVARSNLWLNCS
From the text: as §1
(§2) Recombinant mouse MMP-8 (from R&D Systems, 2904-MP) is chemically activated in accordance with the manufacturer's instructions using APMA. 1 μl of the test compound to be analysed (as a solution in DMSO, suitable concentrations, for example, 1 nM to 30 μM) is pipetted into 24 μl of activated enzyme (final concentration, for example, 2 nM) in reaction buffer (50 mM Tris/HCl pH 7.5, 10 mM CaCl2, 150 mM NaCl, 0.05% Brij®-35) in a white 384-hole microtiter plate (MTP). The enzymatic reaction is started by adding the intramolecularly quenched Mca-Lys-Pro-Leu-Gly-Leu-Dpa(Dnp)-Ala-Arg-NH2 substrate (final concentration, for example, 5 μM; R&D Systems, ES-010), so as to result in a total test volume of 50 μl. The course of the MMP-8 reaction is measured by measuring the fluorescence intensity (excitation 320 nm, emission 410 nm) over a suitable period of time (for example over 120 min at a temperature of 32° C.).

[4] = target: T4, mouse MMP-7 (Mus musculus, UniProt Q10738); assay: In vitro mouse MMP-7 inhibition test
T4 construct: purchased R&D Systems 2967-MP
T4 sequence (Q10738 95-264): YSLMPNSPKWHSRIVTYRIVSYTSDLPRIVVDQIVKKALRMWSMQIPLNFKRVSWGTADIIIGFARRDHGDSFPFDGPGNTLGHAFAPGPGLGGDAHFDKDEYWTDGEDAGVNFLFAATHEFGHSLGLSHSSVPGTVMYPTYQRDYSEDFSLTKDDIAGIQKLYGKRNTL
From the text: as §1
as §2, with “mouse MMP-7” for “mouse MMP-8”, “Systems, 2967-MP)” for “Systems, 2904-MP)”, “example, 0.5” for “example, 2”, “the MMP-7” for “the MMP-8”

T1 sequence (P41245 108-730): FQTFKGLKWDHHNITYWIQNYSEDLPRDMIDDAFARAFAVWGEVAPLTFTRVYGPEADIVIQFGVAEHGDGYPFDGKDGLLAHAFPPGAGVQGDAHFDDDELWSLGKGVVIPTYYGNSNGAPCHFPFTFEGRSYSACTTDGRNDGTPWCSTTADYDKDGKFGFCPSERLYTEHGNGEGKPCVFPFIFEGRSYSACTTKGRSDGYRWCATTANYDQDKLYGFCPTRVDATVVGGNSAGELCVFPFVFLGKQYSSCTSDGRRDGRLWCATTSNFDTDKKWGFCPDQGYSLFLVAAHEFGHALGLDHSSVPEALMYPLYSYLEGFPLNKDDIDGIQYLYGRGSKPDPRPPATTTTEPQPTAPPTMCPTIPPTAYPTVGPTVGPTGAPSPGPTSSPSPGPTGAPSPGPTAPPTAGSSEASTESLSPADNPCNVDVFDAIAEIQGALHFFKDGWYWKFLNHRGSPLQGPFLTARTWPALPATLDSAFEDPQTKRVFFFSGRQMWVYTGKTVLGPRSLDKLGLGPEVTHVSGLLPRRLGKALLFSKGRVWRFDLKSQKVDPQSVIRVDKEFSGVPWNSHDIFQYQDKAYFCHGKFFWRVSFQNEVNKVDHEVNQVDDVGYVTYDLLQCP

Row | Molecule | IC50 [1] [nM] | IC50 [2] [nM] | IC50 [3] [nM] | IC50 [4] [nM]
1 | Cc1ccc2nnn(C[C@H]3CC[C@@H](C(=O)c4ccc(OCc5cccc(Cl)c5)cc4)[C@@H]3C(=O)O)c(=O)c2c1 (single isomer, unassigned) [Example 104, (+)-(1RS,2RS,5SR)-2-{4-[(3-Chlorobenzyl)oxy]benzoyl}-5-[(6-methyl-4-oxo-1,2,3-benzotriazin-3(4H)-yl)methyl]cyclopentanecarboxylic acid] | 330 | 1.1 | 130 | 20
2 | COC(=O)Nc1cccc(COc2ccc(C(=O)[C@@H]3CC[C@H](Cn4nnc5ccc(C(F)(F)F)cc5c4=O)[C@H]3C(=O)O)cc2)c1 (stereo in doubt) [Example 31, (+)-(1RS,2RS,5SR)-2-[4-({3-[(Methoxycarbonyl)amino]benzyl}oxy)benzoyl]-5-{[4-oxo-6-(trifluoromethyl)-1,2,3-benzotriazin-3(4H)-yl]methyl}cyclopentanecarboxylic acid] | 4300 | 6.4 | 89 | 44
3 | (+)-(1RS,2RS,5SR)-2-{4-[(3,4-Dichlorobenzyl)oxy]benzoyl}-5-{[4-oxo-6-(trifluoromethyl)-1,2,3-benzotriazin-3(4H)-yl]methyl}cyclopentanecarboxylic acid [Example 28] | 2500 | 7.1 | 120 | 140
4 | (+)-(1RS,2SR,5RS)-2-{[4-Oxo-6-(trifluoromethyl)-1,2,3-benzotriazin-3(4H)-yl]methyl}-5-{4-[(2-phenylethy)sulphanyl]benzoyl}cyclopentanecarboxylic acid [Example 83] | > 40000 | 5.7 | 1100 | 82

Other lines, results leading:

Row | IC50 [1] [nM] | IC50 [2] [nM] | IC50 [3] [nM] | IC50 [4] [nM] | Molecule
5 | 1100 | 0.72 | 420 | 220 | Cc1ccc2nnn(C[C@H]3CC[C@@H](C(=O)c4ccc(OCc5cccc(OC(F)(F)F)c5)cc4)[C@@H]3C(=O)O)c(=O)c2c1 (single isomer, unassigned) [Example 110, (+)-(1RS,2SR,5RS)-2-[(6-Methyl-4-oxo-1,2,3-benzotriazin-3(4H)-yl)methyl]-5-(4-{[3-(trifluoromethoxy)benzyl]oxy}benzoyl)cyclopentanecarboxylic acid]
6 | 230 | 0.62 | 13 | 16 | Cc1ccc2nnn(C[C@H]3CC[C@@H](C(=O)c4ccc(OCC5CCCCC5)cc4)[C@@H]3C(=O)O)c(=O)c2c1 (single isomer, unassigned) [Example 117, (+)-(1RS,2RS,5SR)-2-[4-(Cyclohexylmethoxy)benzoyl]-5-[(6-methyl-4-oxo-1,2,3-benzotriazin-3(4H)-yl)methyl]cyclopentanecarboxylic acid]
7 | 880 | 4 | 120 | 100 | CCCCCCOc1ccc(C(=O)[C@@H]2CC[C@H](Cn3nnc4ccc(C)cc4c3=O)[C@H]2C(=O)O)cc1 (single isomer, unassigned) [Example 121, (+)-(1RS,2RS,5SR)-2-[4-(Hexyloxy)benzoyl]-5-[(6-methyl-4-oxo-1,2,3-benzotriazin-3(4H)-yl)methyl]cyclopentanecarboxylic acid]
